Assay results reported in PubChem BioAssay (NCI).
Where “and” joins values, the source holds several entries; their conditions need not be identical. Equal values may be shown once.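 Results reflect a 48-hour exposure of cells in 96-well plates to compound at five concentrations. Abbreviation: GI50, concentration required for 50% inhibition of growth. At the TGI there is no net growth.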

Legend:
Experiment in all cases: NCI tumour cell line growth inhibition, 48 h
CAKI-1 renal = test system: CAKI-1 renal
DU-145 prostate = test system: DU-145 prostate
EKVX NSCLC = test system: EKVX NSCLC
HOP-92 NSCLC = test system: HOP-92 NSCLC
MDA-MB-435 = test system: MDA-MB-435
OVCAR-8 ovarian = test system: OVCAR-8 ovarian
SF-268 CNS = test system: SF-268 CNS
SK-MEL-2 melanoma = test system: SK-MEL-2 melanoma
SN12C renal = test system: SN12C renal
T-47D breast = test system: T-47D breast

Row | SMILES | TGI (CAKI-1 renal) | TGI (DU-145 prostate) [µM] | TGI (EKVX NSCLC) | TGI (HOP-92 NSCLC) | TGI (MDA-MB-435) [µM] | TGI (OVCAR-8 ovarian) | TGI (SF-268 CNS) [µM] | TGI (SK-MEL-2 melanoma) | TGI (SN12C renal) | TGI (T-47D breast) [µM] | GI50 (EKVX NSCLC) [µM] | GI50 (HOP-92 NSCLC) [µM] | GI50 (OVCAR-8 ovarian) [µM] | GI50 (SK-MEL-2 melanoma) [µM] | GI50 (CAKI-1 renal) [µM] | GI50 (SF-268 CNS) [µM] | GI50 (SN12C renal) [µM] | GI50 (MDA-MB-435) [µM]
1 | CCc1n[nH]c(=O)n1N=C(c1ccccc1)c1ccccc1 | > 100 µM | > 100 | 93.3 µM | > 100 µM | > 100 | > 100 µM | > 100 | > 100 µM | > 100 µM | > 100 | – | – | – | – | – | – | – | –
2 | COC(=O)[C@@H](NC(=O)c1ccc(CNC(=O)/C(C)=C/c2ccccc2)cc1)C(C)C | > 100 µM | > 100 | > 100 µM | > 100 µM | > 100 | > 100 µM | > 100 | > 100 µM | > 100 µM | > 100 | – | – | – | – | – | – | – | –
3 | NC(CS)C(=O)NCCNc1ccc(NCCNC(=O)C(N)CS)c2c1C(=O)c1c(O)ccc(O)c1C2=O (stereo not given) | 0.566 µM and 0.104 µM | 0.123 | 1.05 µM and 0.274 µM | 0.195 µM and 1.03 µM | 1.86 | 0.574 µM and 0.174 µM | 0.953 | 1.38 µM and 0.87 µM | 0.0822 µM and 0.0691 µM | 1.45 | 0.0538 | 0.0416 | 0.0108 | 0.227 | – | – | – | –
4 | Cc1cc(N)c2cc(NC(=O)Nc3ccc4nc(C)cc(N)c4c3)ccc2n1 | > 100 µM | > 100 | > 100 µM | > 100 µM | > 100 | > 100 µM | > 100 | > 100 µM | > 100 µM | > 100 | – | – | – | – | – | – | – | –
5 | COc1cc(/C=C/C2=NN(c3cccc(S(=O)(=O)O)c3)C3(C2)SCC(=O)N3c2nc3ccccc3s2)cc(OC)c1OC (stereo not given) | > 100 µM | > 100 | > 100 µM | > 100 µM | 50.2 | > 100 µM | > 100 | > 100 µM | > 100 µM | 47.8 | – | – | – | – | – | – | – | –
6 | C=C(C)[C@@H]1CCC2=C(CC[C@]3(C)[C@@H]([C@@H](CCC=C(C)C)C(=O)O)[C@H](O)C[C@@]23C)[C@@]1(C)CCC(=O)O | > 100 µM | > 100 | > 100 µM | > 100 µM | > 100 | > 100 µM | > 100 | > 100 µM | > 100 µM | > 100 | – | – | – | – | – | – | – | –
7 | CCOC(=O)C(NC(=O)c1ccccc1)(Nc1ccc(S(=O)(=O)Nc2ccc(OC)nn2)cc1)C(F)(F)F (stereo not given) | > 100 µM | > 100 | > 100 µM | > 100 µM | > 100 | > 100 µM | > 100 | > 100 µM | > 100 µM | > 100 | – | – | – | – | – | – | – | –
8 | O=C1C(c2c(O)[nH]c3ccc(I)cc23)=Nc2ccccc21 | > 96.5 µM | > 100 | > 49.4 µM | 12.4 µM | > 100 | 4.74 µM | 17.2 | 15.4 µM | > 74.1 µM | > 100 | – | – | – | – | – | – | – | –
9 | Clc1ccc(Nc2nnc(CNc3ccc(-c4nnc(Nc5ccc(Cl)cc5)o4)cc3)o2)cc1 | 33.9 µM | 26.2 | 44.4 µM | 48.7 µM | 30.6 | 25.7 µM | 73.9 | 45.8 µM | 36.9 µM | 56.6 | – | – | – | – | – | – | – | –
10 | CN(C)CCCN=c1c2ccccc2n(C)c2[nH]c(=O)n(C)c(=O)c12 | > 100 µM | > 79 | 28.9 µM | > 84.7 µM | 16.8 | > 100 µM | > 46.6 | 9.96 µM | > 51.6 µM | > 54.7 | – | – | – | – | – | – | – | –
11 | CN(C)C=Nc1c2c(nc3ccccc13)CCCC2 | > 100 µM | > 100 | > 100 µM | > 100 µM | > 100 | > 100 µM | > 100 | > 100 µM | > 100 µM | > 100 | – | – | – | – | – | – | – | –
12 | COC(=O)C1=C(C)NC2=C(C(=O)c3ccccc32)C1c1cn[nH]c1-c1ccccc1 (stereo not given) | > 100 µM | > 100 | > 100 µM | > 100 µM | > 100 | > 100 µM | > 100 | > 100 µM | > 100 µM | > 100 | – | – | – | – | – | – | – | –
13 | O=C(c1cccnc1)N1N=C(c2ccc3c(c2)OCO3)CC1(O)c1cc(F)c(Cl)cc1Cl (stereo not given) | > 100 µM | 59.8 | 64.5 µM | 68.9 µM | > 100 | 38.4 µM | 49.8 | 59.2 µM | 36.5 µM | 43.2 | – | – | – | – | – | – | – | –
14 | CC(C)(CO)NC(=O)c1cccs1 | > 100 µM | > 100 | > 100 µM | > 100 µM | > 100 | > 100 µM | > 100 | > 100 µM | > 100 µM | > 100 | – | – | – | – | – | – | – | –
15 | COc1ccccc1[C@@H]1CCC2CC[C@@H](c3ccccc3OC)[N+]21Cc1ccccc1 (stereo not given in full) | 18.8 µM | 13.7 | 1.86 µM | 4.06 µM | 10.5 | 13.8 µM | 17.4 | 8.86 µM | 10.4 µM | 10.8 | – | – | – | – | – | – | – | –
16 | CCOC(=O)[C@@]12NN=N[C@@H]1[C@H]1CO[C@H](c3ccccc3)N1C2=O | 24.8 µM | 34.3 | 28.8 µM | 8.58 µM | 35.6 | 23.7 µM | 30.8 | 21.7 µM | 26.8 µM | 36 | – | – | – | – | – | – | – | –
17 | COc1cc(C2c3cc4c(cc3OC(NNc3ccccc3)C2C)OCO4)cc(OC)c1O (stereo not given) | > 92 µM | 17.5 | 69.9 µM | 24.5 µM | 3.96 | 23.8 µM | 27.4 | 6.35 µM | 4.63 µM | 10.7 | – | – | – | – | – | – | – | –
18 | CC1=C(C(=O)NCCCN(CCO)CCO)CC(C(=O)NCCCN(CCO)CCO)=C(C)N1 | > 100 µM | > 100 | > 100 µM | > 100 µM | > 100 | > 100 µM | > 100 | > 100 µM | > 100 µM | > 100 | – | – | – | – | – | – | – | –
19 | Nc1nc(N)c2nc(CNc3ccc(C(=O)NC(CCNC(=O)c4ccccc4C(=O)O)C(=O)O)cc3)cnc2n1 (stereo not given) | > 100 µM | > 100 | > 100 µM | > 100 µM | > 100 | > 100 µM | > 100 | > 100 µM | > 100 µM | > 100 | 0.0214 | > 100 | 0.00813 | – | 0.0666 | 0.169 | 0.102 | –
20 | COc1cc(/C=C/c2ccc(S(N)(=O)=O)cc2)cc(OC)c1 | 47.3 µM | 72.8 | 86 µM | 43.9 µM | 40 | > 100 µM | > 100 | 40.3 µM | 55.2 µM | 41.6 | – | 15 | 37.9 | – | 19 | 28.3 | – | 18.7
21 | O=C1C=CC(=O)[C@H]2C3C=CC(C4C3C3(Cl)C(Cl)=C(Cl)[C@]4(Cl)C3(Cl)Cl)[C@@H]12 (stereo not given in full) | 30.2 µM | 21.3 | 15 µM | 7.69 µM | 7.02 | 20.7 µM | 18.4 | 20.3 µM | 18.2 µM | 23.2 | – | – | – | – | – | – | – | –
22 | O=C1c2c(F)c(F)c(F)c(F)c2SC2=Nc3cccc4cccc(c34)N12 | 29 µM | 24.9 | 26.5 µM | 6.7 µM | 12.8 | 17.7 µM | 13.7 | 7.89 µM | 10.4 µM | 4.9 | – | – | – | – | – | – | – | –
23 | O=C(NCCCc1cn[nH]c(=O)n1)c1cccc2nc3ccccc3nc12 | > 100 µM | > 100 | > 100 µM | > 100 µM | > 100 | > 100 µM | > 100 | > 100 µM | > 100 µM | > 100 | – | – | – | – | – | – | – | –
24 | COc1ccc2nc3c([N+](=O)[O-])ccc(NCCCN(C)C)c3c(N)c2c1 | 3.71 µM | 3.05 | 3.68 µM | 3.73 µM | 3.66 | 4.69 µM | 3.31 | 4.78 µM | 2.99 µM | 3.98 | – | – | – | – | – | – | – | –
25 | CCOC(=O)c1cc([N+](=O)[O-])cc([N+](=O)[O-])c1Sc1ncnc2nc[nH]c12 | 6.59 µM | 5.42 | 13.1 µM | 2.52 µM | 4.27 | 4.48 µM | 16 | 9.43 µM | 5.34 µM | 3.34 | – | – | – | – | – | – | – | –
26 | CC1(C)OC2OC(C(=O)c3ccccc3)C3OC(C)(C)OC3C2O1 (stereo not given) | > 100 µM | > 100 | > 100 µM | > 100 µM | > 100 | > 100 µM | > 100 | > 100 µM | > 100 µM | > 100 | – | – | – | – | – | – | – | –
27 | CC(C)(/C=N/O)/[N+]([O-])=C/c1ccccc1 | > 100 µM | > 100 | > 100 µM | > 100 µM | > 100 | > 100 µM | > 100 | > 100 µM | > 100 µM | > 100 | – | – | – | – | – | – | – | –
28 | O=C1c2ccccc2C(=O)c2c(NCC3CO3)cccc21 (stereo not given) | 77.3 µM | > 34.3 | > 57.6 µM | > 100 µM | 20 | 24.8 µM | 17.9 | 32 µM | 20.1 µM | > 100 | – | – | – | – | – | – | – | –
29 | NCCN(CCN)/[N+]([O-])=N/O | > 100 µM | > 100 | > 100 µM | > 100 µM | > 100 | > 100 µM | > 100 | > 100 µM | > 100 µM | > 100 | – | – | – | – | – | – | – | –
30 | Cc1cc2c(cc1-c1cc3c(cc1C)C(C(C)C)=C(O)C(=O)/C3=C\Nc1ccccn1)/C(=C/Nc1ccccn1)C(=O)C(O)=C2C(C)C | > 100 µM | > 100 | > 100 µM | > 100 µM | > 100 | > 100 µM | > 100 | 86.5 µM | > 100 µM | > 100 | – | – | – | – | – | – | – | –
